Assay results from patent publication US20260250320A1, “LIPIDATED PEPTIDE INHIBITORS OF INTERLEUKIN-23 RECEPTOR” (Janssen Pharmaceutica NV, priority 2023, published 2026).
pIC50: −log10 of the molar value. *1 amine or outer side, *2 acyl side, *3 side chain or, on linkers, in order; H or OH if unused. Where a SMILES comes first, the peptide text is derived from it. Bridges are numbered along the chain shown (N, C = ends). Side-chain parts run from the residue outwards. [ ]: non-standard residue; d: D form. The star is where a group is joined. ξ: configuration not given here. X38 = O=C(O)CCCCCCCCCCCCCCCCC(=O)N[C@@H](CCC(=O)NCCOCCOCC(=O)NCCOCCCCC(=O)*)C(=O)O; X16 = CC(C)(S[*:2])[C@H](CC(=O)CCOCCOCC[N+](C)(C)C)C(=O)[*:1]; CH2CH2OCH2CH2OCH2CH2NMe3+ = C[N+](C)(C)CCOCCOCC*; Biotin = O=C1N[C@H]2[C@H](CS[C@H]2CCCCC(=O)*)N1; Trp(7-Me) = Cc1cccc2c(C[C@H](N)C(=O)O)c[nH]c12; C18 diacid = O=C(O)CCCCCCCCCCCCCCCCC(=O)*; γGlu = O=C(O)[C@H](CCC(=O)[*:2])N[*:1]; 2Nal = N[C@@H](Cc1ccc2ccccc2c1)C(=O)O; AEF = NCCOc1ccc(C[C@H](N)C(=O)O)cc1; αMeT = C[C@@H](O)[C@](C)(N)C(=O)O; 3Pal = N[C@@H](Cc1cccnc1)C(=O)O; Lys(Me) = CNCCCC[C@H](N)C(=O)O; NMeK = CN[C@@H](CCCCN)C(=O)O; PEG4 = NCCOCCOCCOCCOCCC(=O)O; Pen = CC(C)(S)[C@H](N)C(=O)O; Thp = NC1(C(=O)O)CCOCC1; X1 = C[N+](C)(C)CCCCC*; ξN = NC(=O)CC(N)C(=O)O; AEEA = NCCOCCOCC(=O)O; Sar = CNCC(=O)O

What was measured:
[1] = molecular target: T1, IL-23R (Homo sapiens, UniProt Q5VWK5); assay: IL23R Reporter Assay; type: cell-based; settings: HEK293 cells containing IL-23R, IL-12Rβ1 and STAT-inducible firefly luciferase reporter; 10 ng/mL IL-23 (EC90); 5 h
T1 construct: HEK293 cells containing IL-23R, IL-12Rβ1 and a firefly luciferase reporter gene driven by a STAT-inducible promoter (Promega); host or cells: HEK293
T1 sequence (Q5VWK5 24-629): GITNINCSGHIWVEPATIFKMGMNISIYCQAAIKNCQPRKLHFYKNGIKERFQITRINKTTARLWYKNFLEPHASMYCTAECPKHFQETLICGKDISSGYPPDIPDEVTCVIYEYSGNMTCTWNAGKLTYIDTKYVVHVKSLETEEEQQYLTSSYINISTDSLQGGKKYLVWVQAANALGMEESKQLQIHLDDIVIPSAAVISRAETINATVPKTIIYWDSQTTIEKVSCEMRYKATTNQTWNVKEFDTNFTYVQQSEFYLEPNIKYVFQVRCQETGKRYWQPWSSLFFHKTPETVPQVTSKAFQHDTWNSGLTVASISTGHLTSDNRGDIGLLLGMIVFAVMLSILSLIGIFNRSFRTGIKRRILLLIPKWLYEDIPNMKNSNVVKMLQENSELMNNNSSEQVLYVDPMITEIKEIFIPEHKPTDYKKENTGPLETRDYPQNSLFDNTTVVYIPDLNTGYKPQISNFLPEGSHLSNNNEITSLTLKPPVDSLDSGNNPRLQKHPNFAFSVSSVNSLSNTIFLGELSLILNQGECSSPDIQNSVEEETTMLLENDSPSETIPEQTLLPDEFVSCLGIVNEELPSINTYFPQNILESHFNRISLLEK
Procedure: Compounds were serially diluted in 100% (v/v) DMSO) and plated using an Echo acoustic dispenser (Labcyte) into 1536-well non-treated black assay plates (Corning #9146). 3 μL of HEK293 cells containing IL-23R, IL-12Rβ1 and a firefly luciferase reporter gene driven by a STAT-inducible promoter (Promega) were added to the plates (4000 cells/well), followed by 3 μL of 10 ng/mL IL-23 (equivalent to EC90 concentration). After 5 h at 37° C., 5% CO2, 95% relative humidity, cells were placed at 20° C. and treated with BioGlo reagent (Promega) according to the Manufacturer's instructions. Luminescence was measured on a Pherastar FSX (BMG LabTech). Data were normalized to IL-23 treatment (0% inhibition) and 30 μM of control inhibitor (100% inhibition), and IC50 values were determined using a 4-parameter Hill equation.

[2] = system: IL-23-stimulated phosphorylated STAT3 in peripheral blood mononuclear cells (PBMCs); assay: PBMC pSTAT3 Assay; type: cell-based; settings: PBMCs from healthy donors; 30 min preincubation with peptide; IL-23 5 ng/mL for 30 min; phospho-STAT3 by MSD
Procedure: Cryopreserved peripheral blood mononuclear cells (PBMCs) from healthy donors were thawed and washed twice in ImmunoCult-XF T cell expansion medium (XF-TCEM) supplemented with CTL anti-aggregate wash. The cells were counted, resuspended at 2-6×10^5 cells per mL XF-TCEM supplemented with penicillin/streptomycin and 100 ng/mL […] (BioLegend, 579404), and cultured in tissue culture flasks coated with anti-CD3 (eBioscience, 16-0037-85 or BD Pharmingen, 555329) at 37° C. in 5% CO2. On day 4 of culture, PBMCs were collected, washed twice in RPMI-1640 supplemented with 0.1% BSA (RPMI-BSA), and incubated in RPMI-BSA in upright tissue culture flasks for ~4 hours at 37° C. in 5% CO2. Following this 'starvation,' a total of 6×10^4 cells in 30 μL RPMI-BSA was transferred into each well of a 384-well plate pre-spotted with peptide or DMSO. The cells were incubated for 30 minutes prior to the addition of […] at a final concentration of 5 ng/mL. The cells were stimulated with cytokine for 30 minutes at 37° C. in 5% CO2, transferred onto ice for 10 minutes, and lysed. Cell lysates were stored at -80° C. until phosphorylated STAT3 was measured using the phospho-STAT panel kit (Meso Scale Discovery, […]). Results are provided below. • A: IC50<0.5 nM; • B: 0.5 nM≤IC50<5 nM; • C: 5 nM≤IC50; • ND: Not determined

SMILES	pIC50 [1]	pIC50 [2]
CC(=O)N[C@@H](CCCCNC(=O)CCCCOCCNC(=O)COCCOCCNC(=O)CC[C@H](NC(=O)CCCCCCCCCCCCCCCCC(=O)O)C(=O)O)C(=O)N[C@@H]1C(=O)N[C@@H](CC(=O)N(C)C)C(=O)N[C@@H]([C@@H](C)O)C(=O)N[C@@H](Cc2c[nH]c3c(C)cccc23)C(=O)N[C@@H](CCCCN(C)C(C)=O)C(=O)N[C@H](C(=O)N[C@@H](Cc2ccc(OCCCCC[N+](C)(C)C)cc2)C(=O)N[C@@H](Cc2ccc3ccccc3c2)C(=O)NC2(C(=O)N[C@@H](CCCCN(C)C(C)=O)C(=O)N[C@@H](CC(N)=O)C(=O)N[C@@H](Cc3cccnc3)C(=O)N(C)CC(N)=O)CCOCC2)C(C)(C)SSC1(C)C [compound 63, MeCO-K(PEG2PEG2gEC18OH)-Pen(3)-N(N(Me)2)-T-7MeW-K(NMeAc)-Pen(3)-TMAPF-2Nal-THP-K(NMeAc)-N-3Pya-Sar-CONH2] (Ac-K(X38)[Pen]D(NMe2)T[Trp(7-Me)][Lys(Me)](Ac)[Pen]Y(X1)[2Nal][Thp][Lys(Me)](Ac)N[3Pal][Sar]-NH2; disulfide 2-7)	≤ 6.30	≤ 8.30
CC(=O)NCCCC[C@@H]1NC(=O)[C@H](Cc2c[nH]c3c(C)cccc23)NC(=O)[C@](C)([C@@H](C)O)NC(=O)C(CC(N)=O)NC(=O)[C@@H](NC(=O)[C@@H](CCCNC(=N)N)NC(C)=O)C(C)(C)SSC(C)(C)[C@@H](C(=O)N[C@@H](Cc2ccc(OCCN)cc2)C(=O)N[C@@H](Cc2ccc3ccccc3c2)C(=O)NC2(C(=O)N[C@@H](CCCCNC(=O)CCOCCOCCOCCOCCNC(=O)CCCC[C@@H]3SC[C@@H]4NC(=O)N[C@@H]43)C(=O)N[C@@H](CC(N)=O)C(=O)N[C@@H](Cc3cccnc3)C(=O)N(C)CC(=O)N[C@@H](CCCCNC(=O)COCCOCCNC(=O)COCCOCCNC(=O)CC[C@H](NC(=O)CCCCCCCCCCCCCCCCC(=O)O)C(=O)O)C(N)=O)CCOCC2)NC1=O (stereo partly drawn) [compound 56, MeCO-r-Pen(3)-N-T-7MeW-K(Ac)-Pen(3)-AEF-2Nal-THP-K(BiotinPEG4)-N-3Pya-Sar-K(PEG2PEG2gEC18OH)-CONH2] (Ac-[dR][Pen][ξN][αMeT][Trp(7-Me)]K(Ac)[Pen][AEF][2Nal][Thp]K([PEG4-Biotin])N[3Pal][Sar]K([AEEA-AEEA-γGlu-C18 diacid])-NH2; disulfide 2-7)	> 7.30	> 9.30
CC(=O)N(C)CCCC[C@@H]1NC(=O)[C@H](Cc2c[nH]c3c(C)cccc23)NC(=O)[C@H]([C@@H](C)O)NC(=O)[C@H](CC(=O)N(C)C)NC(=O)[C@@H](CC(=O)CCOCCOCC[N+](C)(C)C)C(C)(C)SSC(C)(C)[C@@H](C(=O)N[C@@H](Cc2ccc(OCCOCCOCC[N+](C)(C)C)cc2)C(=O)N[C@@H](Cc2ccc3ccccc3c2)C(=O)NC2(C(=O)N[C@@H](CCCCN(C)C(C)=O)C(=O)NC(CC(N)=O)C(=O)N[C@@H](Cc3cccnc3)C(=O)N(C)[C@@H](CCCCNC(=O)COCCOCCNC(=O)COCCOCCNC(=O)CC[C@H](NC(=O)CCCCCCCCCCCCCCCCC(=O)O)C(=O)O)C(N)=O)CCOCC2)NC1=O (stereo partly drawn) [compound 113, cPEG3aCO-Pen(3)-N(N(Me)2)-T-7MeW-K(NMeAc)-Pen(3)-APEG3F-2Nal-THP-K(NMeAc)-N-3Pya-NMeK(PEG2PEG2gEC18OH)-CONH2] (D(NMe2)T[Trp(7-Me)][Lys(Me)](Ac)[Pen]Y(CH2CH2OCH2CH2OCH2CH2NMe3+)[2Nal][Thp][Lys(Me)](Ac)[ξN][3Pal][NMeK]([AEEA-AEEA-γGlu-C18 diacid])-NH2; linker N-5 via X16)	> 7.30	> 9.30
